Structures can show the parent of a compound that is named as a salt.
Target: T1, human SSAO (Homo sapiens, UniProt Q16853)
T1 construct: made in house
T1 sequence (Q16853 29-763 limits assumed): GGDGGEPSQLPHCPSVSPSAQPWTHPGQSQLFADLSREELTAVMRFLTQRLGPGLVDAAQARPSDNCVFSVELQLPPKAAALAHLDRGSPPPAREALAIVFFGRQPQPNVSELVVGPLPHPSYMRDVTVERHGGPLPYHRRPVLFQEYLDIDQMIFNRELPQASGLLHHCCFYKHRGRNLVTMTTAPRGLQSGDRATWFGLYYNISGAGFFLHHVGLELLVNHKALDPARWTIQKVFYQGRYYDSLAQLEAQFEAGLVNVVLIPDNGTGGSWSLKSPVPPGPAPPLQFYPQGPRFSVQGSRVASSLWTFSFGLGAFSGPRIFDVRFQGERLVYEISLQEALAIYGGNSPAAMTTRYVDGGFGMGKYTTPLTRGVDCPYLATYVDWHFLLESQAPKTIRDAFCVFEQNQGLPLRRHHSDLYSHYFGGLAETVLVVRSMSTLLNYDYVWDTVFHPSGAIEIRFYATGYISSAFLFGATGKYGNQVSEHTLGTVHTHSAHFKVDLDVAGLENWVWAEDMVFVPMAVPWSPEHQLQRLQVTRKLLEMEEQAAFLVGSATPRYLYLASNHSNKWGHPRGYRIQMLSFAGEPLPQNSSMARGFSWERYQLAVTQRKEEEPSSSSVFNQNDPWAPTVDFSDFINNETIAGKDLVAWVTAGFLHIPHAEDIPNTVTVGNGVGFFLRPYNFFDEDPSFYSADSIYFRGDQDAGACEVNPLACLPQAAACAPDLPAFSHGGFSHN
Assay: SSAO enzyme inhibition assay (benzylamine substrate; HRP-coupled hydrogen peroxide detection or 14C-benzaldehyde detection)
Assay type: biochemical
Settings: purified recombinantly expressed human SSAO, benzylamine as substrate, r.t.; read-out: SSAO inhibitory activity IC50
Experimental: All primary assays were performed at r.t. with purified recombinantly expressed human SSAO. Enzyme was prepared essentially as described in Öhman et al. (Protein Expression and Purification 46 (2006) 321-331). In addition, secondary- and selectivity assays were performed using SSAO prepared from various tissues or purified rat recombinant SSAO. The enzyme activity was assayed with benzylamine as substrate by measuring either benzaldehyde production, using ^14C-labeled substrate, or by utilizing the production of hydrogen peroxide in a horseradish peroxidise (HRP) coupled reaction. Briefly, test compounds were dissolved in dimethyl sulfoxide (DMSO) to a concentration of 10 mM. Dose-response measurements were assayed by either creating 1:10 serial dilutions in DMSO to produce a 7 point curve or by making 1:3 serial dilutions in DMSO to produce 11 point curves. The top concentrations were adjusted depending on the potency of the compounds and subsequent dilution in reaction buffer yielded a final DMSO concentration ≦2%.
In a horseradish peroxidise (HRP) coupled reaction, hydrogen peroxide oxidation of 10-acetyl-3,7-dihydroxyphenoxazine produced resorufin, which is a highly fluorescent compound (Zhout and Panchuk-Voloshina. Analytical Biochemistry 253 (1997) 169-174; Amplex® Red Hydrogen Peroxide/peroxidise Assay kit, Invitrogen A22188). Enzyme and compounds in 50 mM sodium phosphate, pH 7.4 were set to pre-incubate in flat-bottomed microtiter plates for approximately 15 minutes before initiating the reaction by addition of a mixture of HRP, benzylamine and Amplex reagent. Benzylamine concentration was fixed at a concentration corresponding to the Michaelis constant, determined using standard procedures. Fluorescence intensity was then measured at several time points during 1-2 hours, exciting at 544 nm n and reading the emission at 590 nm. For the human SSAO assay final concentrations of the reagents in the assay wells were: SSAO enzyme 1 μg/ml, benzylamine 100 μM, Amplex reagent 20 μM, HRP 0.1 U/mL and varying concentrations of test compound. The inhibition was measured as % decrease of the signal compared to a control without inhibitor (only diluted DMSO). The background signal from a sample containing no SSAO enzyme was subtracted from all data points. Data was fitted to a four parameter logistic model and IC50 values were calculated using the GraphPad Prism 4 or XLfit 4 programs.
SSAO activity was assayed using 14C-labeled benzylamine and analysed by measuring radioactive benzaldehyde. In a white 96-well optiplate (Packard), 20 μL of diluted test compound was pre-incubated at r.t. with 20 μL SSAO enzyme for approximately 15 minutes with continuous agitation. All dilutions were made with PBS. The reaction was initiated by adding 20 μL of the benzylamine substrate solution containing [7-14C] Benzylamine hydrochloride (CFA589, GE Healthcare). The plate was incubated for 1 hour as above after which the reaction was stopped by acidification (10 μL 1 M HCl). Then 90 μL Micro Scint-E solution (Perkin-Elmer) was added to each well and the plate was continuously mixed for 15 minutes. Phase separation occurred instantly and activity was read in a Topcount scintillation counter (Perkin-Elmer). In the final reaction well, human recombinant SSAO concentration was 10 μg/ml. In order to optimize sensitivity, the substrate concentration was decreased as compared to the HRP coupled assay in order to get a higher fraction of radioactive product. In the human SSAO assay, benzylamine concentration was 40 μM (0.2 μCi/mL). Data was analysed as above.

| Structure (SMILES) | IC50 |
| --- | --- |
| FC1(F)CCN(c2nn(-c3ccc(Cl)cc3)c3cnccc23)C1 [Compound 48, 1-[1-(4-Chlorophenyl)-1H-pyrazolo[3,4-c]pyridin-3-yl]-3,3-difluoropyrrolidine] | 100 to 500 nM |
| Clc1ccc(-n2nc(N3CCNCC3)c3ccncc32)cc1 [Compound 70, 1-[1-(4-Chlorophenyl)-1H-pyrazolo[3,4-c]pyridin-3-yl]piperazine] | 500 to 2500 nM |
| OC1CCN(Cc2cn(-c3ccc(Cl)cc3)c3cnccc23)CC1 [Compound 30, 1-{[1-(4-Chlorophenyl)-1H-pyrrolo[2,3-c]pyridin-3-yl]methyl}piperidin-4-ol] | 100 to 500 nM |
| CCCCN1CCC(c2nn(-c3ccc(Cl)cc3)c3cnccc23)CC1 [Compound 90, 1-Butyl-4-[1-(4-chlorophenyl)-1H-pyrazolo[3,4-c]pyridin-3-yl]piperidine] | 500 to 2500 nM |
| Clc1ccc(-c2cn(C3CCOCC3)c3ccncc23)cc1 [Compound 4, 3-(4-Chlorophenyl)-1-(oxan-4-yl)-1H-pyrrolo[3,2-c]pyridine] | 100 to 500 nM |
| CCOC(=O)N1CCC(c2nn(-c3ccc(Cl)cc3)c3cnccc23)CC1 [Compound 92, Ethyl 4-[1-(4-chlorophenyl)-1H-pyrazolo[3,4-c]pyridin-3-yl]piperidine-1-carboxylate] | 100 to 500 nM |
| Oc1cc2c(C3CCOCC3)nn(-c3ccc(Cl)cc3)c2cn1 [Compound 97, 1-(4-Chlorophenyl)-3-(oxan-4-yl)-1H,5H,6H-pyrazolo[3,4-c]pyridin-5-one] | 100 to 500 nM |
| CN(C)C(=O)N1CCC(c2nn(-c3ccc(Cl)cc3)c3cnccc23)CC1 [Compound 91, 4-[1-(4-Chlorophenyl)-1H-pyrazolo[3,4-c]pyridin-3-yl]-N,N-dimethylpiperidine-1-carboxamide] | 100 to 500 nM |
| Cc1ccc(-n2nc(N3CCNC(=O)C3)c3ccncc32)cc1 [Compound 68, 4-[1-(4-Methylphenyl)-1H-pyrazolo[3,4-c]pyridin-3-yl]piperazin-2-one] | < 100 nM |
| Clc1ccc(-n2nc(N3CCN(Cc4cc[nH]n4)CC3)c3ccncc32)cc1 [Compound 75, 1-[1-(4-Chlorophenyl)-1H-pyrazolo[3,4-c]pyridin-3-yl]-4-(1H-pyrazol-3-ylmethyl)piperazine] | 100 to 500 nM |
| Clc1ccc(-n2cc(C3CCOCC3)c3ccncc32)cc1 [Compound 101, 1-(4-Chlorophenyl)-3-(oxan-4-yl)-1H-pyrrolo[2,3-c]pyridine] | < 100 nM |
| CC1COCCN1c1nn(-c2ccc(Cl)cc2)c2cnccc12 (stereo not shown) [Compound 60, 4-[1-(4-Chlorophenyl)-1H-pyrazolo[3,4-c]pyridin-3-yl]-3-methylmorpholine] | < 100 nM |
| O=C(CO)N1CCC(n2cc(-c3ccc(Cl)c(Cl)c3)c3cnccc32)CC1 [Compound 7, 1-{4-[3-(3,4-Dichlorophenyl)-1H-pyrrolo[3,2-c]pyridin-1-yl]piperidin-1-yl}-2-hydroxyethan-1-one] | 500 to 2500 nM |
| Cc1ccc(-n2nc(C3CCOCC3)c3ccncc32)c(C)c1 [Compound 45, 1-(2,4-Dimethylphenyl)-3-(oxan-4-yl)-1H-pyrazolo[3,4-c]pyridine] | 500 to 2500 nM |
| Clc1ccc(-n2cc(N3CCOCC3)c3ccncc32)cc1 [Compound 104, 4-[1-(4-Chlorophenyl)-1H-pyrrolo[2,3-c]pyridin-3-yl]morpholine 2,2,2-trifluoroacetic acid] | < 100 nM |
| Clc1ccc(-n2nc(C3CCOCC3)c3ccncc32)cc1 [Compound 80, 1-(4-Chlorophenyl)-3-(oxan-4-yl)-1H-pyrazolo[3,4-c]pyridine] | 100 to 500 nM |

| Structure (SMILES) | IC50 |
| --- | --- |
| Cc1ccc(-n2nc(N3CCOC(CC(C)C)C3)c3ccncc32)cc1 (stereo not shown) [Compound 61, 4-[1-(4-Methylphenyl)-1H-pyrazolo[3,4-c]pyridin-3-yl]-2-(2-methylpropyl)morpholine] | 100 to 500 nM |
| Cc1ccc(-n2nc(C3CCOCC3)c3ccncc32)c(F)c1 [Compound 43, 1-(2-Fluoro-4-methylphenyl)-3-(oxan-4-yl)-1H-pyrazolo[3,4-c]pyridine] | 100 to 500 nM |
| N#CCCCN1CCC(c2cn(-c3ccc(Cl)cc3)c3cnccc23)CC1 [Compound 22, 4-{4-[1-(4-Chlorophenyl)-1H-pyrrolo[2,3-c]pyridin-3-yl]piperidin-1-yl}butanenitrile hydrochloride] | 100 to 500 nM |
| Cc1ccc(-n2nc(N3CCOCC3)c3ccncc32)c(F)c1 [Compound 58, 4-[1-(2-Fluoro-4-methylphenyl)-1H-pyrazolo[3,4-c]pyridin-3-yl]morpholine] | < 100 nM |
| CC(C)(C)OC(=O)N1CCN(Cc2cn(-c3ccc(Cl)cc3)c3cnccc23)CC1 [Compound 25] | 500 to 2500 nM |
| NCCC(=O)N1CCC(c2nn(-c3ccc(Cl)cc3)c3cnccc23)CC1 [Compound 93, 3-Amino-1-{4-[1-(4-chlorophenyl)-1H-pyrazolo[3,4-c]pyridin-3-yl]piperidin-1-yl}propan-1-one dihydrochloride] | 100 to 500 nM |
| Fc1cc(Cl)ccc1-n1nc(C2CCOCC2)c2ccncc21 [Compound 44, 1-(4-Chloro-2-fluorophenyl)-3-(oxan-4-yl)-1H-pyrazolo[3,4-c]pyridine] | < 100 nM |
| FC(F)c1ccc(-n2nc(C3CCOCC3)c3ccncc32)cc1 [Compound 42, 1-[4-(Difluoromethyl)phenyl]-3-(oxan-4-yl)-1H-pyrazolo[3,4-c]pyridine] | 100 to 500 nM |
| Clc1ccc(-n2nc(C3CCNCC3)c3ccncc32)cc1 [Compound 84, 4-[1-(4-Chlorophenyl)-1H-pyrazolo[3,4-c]pyridin-3-yl]piperidine] | 100 to 500 nM |
| Cc1ccc(-n2nc(N3CC4CCC(C3)O4)c3ccncc32)cc1 [Compound 63, 3-[1-(4-Methylphenyl)-1H-pyrazolo[3,4-c]pyridin-3-yl]-8-oxa-3-azabicyclo[3.2.1]octane] | < 100 nM |
| Clc1ccc(-c2cn(CC3CCOC3)c3ccncc23)cc1 (stereo not shown) [Compound 1, 3-(4-Chlorophenyl)-1-(oxolan-3-ylmethyl)-1H-pyrrolo[3,2-c]pyridine] | 500 to 2500 nM |
| OCCNCc1cn(-c2ccc(Cl)cc2)c2cnccc12 [Compound 31, 2-({[1-(4-Chlorophenyl)-1H-pyrrolo[2,3-c]pyridin-3-yl]methyl}amino)ethan-1-ol] | 500 to 2500 nM |
| Cc1ccc(-n2nc(N3CCOCC3C(=O)NCCN)c3ccncc32)cc1 (stereo not shown) [Compound 79, N-(2-Aminoethyl)-4-[1-(4-methylphenyl)-1H-pyrazolo[3,4-c]pyridin-3-yl]morpholine-3-carboxamide dihydrochloride] | 100 to 500 nM |
| Clc1ccc(-n2cc(C3CCOCC3)c3ccncc32)nc1 [Compound 103, 5-Chloro-2-[3-(oxan-4-yl)-1H-pyrrolo[2,3-c]pyridin-1-yl]pyridine] | 100 to 500 nM |
| Clc1ccc(-c2cn(C3CCOC3)c3ccncc23)cc1 (stereo not shown) [Compound 3, 3-(4-Chlorophenyl)-1-(oxolan-3-yl)-1H-pyrrolo[3,2-c]pyridine] | 100 to 500 nM |

— patent publication US9227967B2, “Inhibitor compounds of semicarbazide-sensitive amine oxidases” (Proximagen Limited, priority 2010, dated 2016)
